Source: the NIST ThermoML archive (doi:10.1016/j.jct.2010.02.015)
Values joined by “and” are separate entries in the source; they are usually repeats but may differ in a detail not shown here. Equal values may be shown once.

Conditions: Gas, Buoyancy - hydrostatic balance with magnetic suspension - two sinkers

[He] [helium]
Conditions	mass density
323.15 K, 4247.2 kPa	6.2127 kg/m3
323.15 K, 4247.3 kPa	6.2128 kg/m3 and 6.2127 kg/m3
323.15 K, 4851.3 kPa	7.0783 kg/m3 and 7.0787 kg/m3 and 7.0785 kg/m3
323.15 K, 4851.4 kPa	7.0788 kg/m3
323.15 K, 7550.9 kPa	10.893 kg/m3
323.15 K, 7551 kPa	10.8932 kg/m3 and 10.8928 kg/m3 and 10.8929 kg/m3
323.15 K, 7816.5 kPa	11.2639 kg/m3
323.15 K, 7816.6 kPa	11.264 kg/m3 and 11.2637 kg/m3
323.15 K, 11516 kPa	16.3444 kg/m3 and 16.3445 kg/m3
323.15 K, 11561 kPa	16.4063 kg/m3 and 16.4048 kg/m3
323.15 K, 15406 kPa	21.5262 kg/m3 and 21.5263 kg/m3 and 21.5265 kg/m3
323.15 K, 15457 kPa	21.5934 kg/m3 and 21.5932 kg/m3
323.15 K, 15458 kPa	21.5942 kg/m3
323.15 K, 18569 kPa	25.6255 kg/m3 and 25.6259 kg/m3
323.15 K, 18570 kPa	25.6261 kg/m3 and 25.6263 kg/m3
323.15 K, 19211 kPa	26.4456 kg/m3
323.15 K, 19212 kPa	26.4466 kg/m3 and 26.446 kg/m3
323.15 K, 24300 kPa	32.8067 kg/m3
323.15 K, 24301 kPa	32.8072 kg/m3 and 32.807 kg/m3 and 32.8069 kg/m3
323.15 K, 25287 kPa	34.0129 kg/m3 and 34.0124 kg/m3
323.15 K, 25288 kPa	34.0134 kg/m3
323.15 K, 25289 kPa	34.0147 kg/m3
323.15 K, 30738 kPa	40.5213 kg/m3
323.15 K, 30739 kPa	40.522 kg/m3
323.15 K, 30740 kPa	40.5237 kg/m3 and 40.5227 kg/m3
323.15 K, 32137 kPa	42.1508 kg/m3
323.15 K, 32138 kPa	42.1518 kg/m3 and 42.1514 kg/m3
323.15 K, 32139 kPa	42.1524 kg/m3
323.15 K, 37733 kPa	48.5152 kg/m3
323.15 K, 37734 kPa	48.5163 kg/m3
323.15 K, 37735 kPa	48.5178 kg/m3
323.15 K, 37736 kPa	48.5195 kg/m3
323.15 K, 37959 kPa	48.7675 kg/m3
323.15 K, 37960 kPa	48.7683 kg/m3 and 48.7679 kg/m3
323.15 K, 37961 kPa	48.7698 kg/m3
350 K, 4685.1 kPa	6.3268 kg/m3 and 6.3265 kg/m3
350 K, 4685.2 kPa	6.3269 kg/m3 and 6.3267 kg/m3
350 K, 7452.5 kPa	9.9569 kg/m3 and 9.9566 kg/m3 and 9.9568 kg/m3
350 K, 11158 kPa	14.7003 kg/m3 and 14.7004 kg/m3 and 14.7008 kg/m3
350 K, 15078 kPa	19.5787 kg/m3 and 19.579 kg/m3 and 19.5788 kg/m3
350 K, 15079 kPa	19.5795 kg/m3
350 K, 18991 kPa	24.3127 kg/m3 and 24.3128 kg/m3
350 K, 18992 kPa	24.313 kg/m3 and 24.3135 kg/m3
350 K, 24052 kPa	30.2468 kg/m3 [middle of 4 runs]
350 K, 30655 kPa	37.6887 kg/m3
350 K, 30656 kPa	37.6893 kg/m3 and 37.6888 kg/m3
350 K, 30658 kPa	37.6913 kg/m3
350 K, 37804 kPa	45.3924 kg/m3
350 K, 37805 kPa	45.3931 kg/m3
350 K, 37806 kPa	45.3936 kg/m3 and 45.3946 kg/m3
375 K, 4669.4 kPa	5.8931 kg/m3 and 5.893 kg/m3 and 5.8932 kg/m3
375 K, 7673.3 kPa	9.581 kg/m3 and 9.5809 kg/m3
375 K, 7673.4 kPa	9.5815 kg/m3 and 9.5814 kg/m3
375 K, 7673.5 kPa	9.5816 kg/m3
375 K, 11339 kPa	13.9783 kg/m3 and 13.9779 kg/m3 and 13.9781 kg/m3
375 K, 14992 kPa	18.2509 kg/m3 and 18.2507 kg/m3
375 K, 14993 kPa	18.2512 kg/m3 and 18.2509 kg/m3
375 K, 19144 kPa	22.9816 kg/m3 and 22.9811 kg/m3 and 22.981 kg/m3
375 K, 19145 kPa	22.9817 kg/m3 and 22.9816 kg/m3
375 K, 24590 kPa	28.996 kg/m3
375 K, 24591 kPa	28.9965 kg/m3 and 28.9964 kg/m3 and 28.9966 kg/m3
375 K, 30460 kPa	35.251 kg/m3
375 K, 30461 kPa	35.2518 kg/m3 and 35.2512 kg/m3
375 K, 30462 kPa	35.2524 kg/m3
375 K, 30463 kPa	35.2534 kg/m3
375 K, 37969 kPa	42.9318 kg/m3
375 K, 37970 kPa	42.9322 kg/m3
375 K, 37971 kPa	42.9332 kg/m3
375 K, 37972 kPa	42.9339 kg/m3
375 K, 37973 kPa	42.9352 kg/m3
400 K, 5058.3 kPa	5.9844 kg/m3 [middle of 4 runs]
400 K, 7571.3 kPa	8.8831 kg/m3 and 8.8829 kg/m3
400 K, 7571.4 kPa	8.883 kg/m3 and 8.8833 kg/m3
400 K, 11460 kPa	13.2766 kg/m3 and 13.2769 kg/m3 and 13.2767 kg/m3
400 K, 14777 kPa	16.9377 kg/m3 [middle of 4 runs]
400 K, 19142 kPa	21.6423 kg/m3 and 21.6418 kg/m3 and 21.6416 kg/m3
400 K, 19143 kPa	21.6425 kg/m3
400 K, 23882 kPa	26.6105 kg/m3
400 K, 23883 kPa	26.6111 kg/m3
400 K, 23884 kPa	26.6117 kg/m3 and 26.6114 kg/m3
400 K, 29989 kPa	32.8083 kg/m3
400 K, 29990 kPa	32.8093 kg/m3 and 32.8086 kg/m3
400 K, 29991 kPa	32.8101 kg/m3
400 K, 37939 kPa	40.5581 kg/m3
400 K, 37940 kPa	40.5595 kg/m3
400 K, 37941 kPa	40.56 kg/m3
400 K, 37942 kPa	40.5606 kg/m3
425 K, 7875.4 kPa	8.7027 kg/m3
425 K, 7875.6 kPa	8.703 kg/m3
425 K, 7875.7 kPa	8.703 kg/m3
425 K, 7875.8 kPa	8.7031 kg/m3
425 K, 11516 kPa	12.586 kg/m3 and 12.5859 kg/m3
425 K, 11517 kPa	12.5867 kg/m3 and 12.5863 kg/m3
425 K, 15540 kPa	16.7803 kg/m3
425 K, 15541 kPa	16.7806 kg/m3 and 16.7809 kg/m3
425 K, 19133 kPa	20.4427 kg/m3 and 20.4422 kg/m3
425 K, 19134 kPa	20.4431 kg/m3
425 K, 25118 kPa	26.3791 kg/m3
425 K, 25119 kPa	26.3797 kg/m3
425 K, 25120 kPa	26.3801 kg/m3 and 26.3808 kg/m3
425 K, 31604 kPa	32.5927 kg/m3
425 K, 31605 kPa	32.5929 kg/m3
425 K, 31606 kPa	32.5939 kg/m3
425 K, 31607 kPa	32.5953 kg/m3
425 K, 37906 kPa	38.4268 kg/m3
425 K, 37908 kPa	38.4278 kg/m3
425 K, 37909 kPa	38.4293 kg/m3
425 K, 37913 kPa	38.4326 kg/m3
450 K, 4775.3 kPa	5.0371 kg/m3
450 K, 4775.4 kPa	5.0373 kg/m3 and 5.0374 kg/m3
450 K, 7655.9 kPa	8.0083 kg/m3
450 K, 7656 kPa	8.0084 kg/m3 and 8.0085 kg/m3
450 K, 11907 kPa	12.3041 kg/m3 [middle of 4 runs]
450 K, 15358 kPa	15.7171 kg/m3 [middle of 4 runs]
450 K, 18965 kPa	19.2155 kg/m3
450 K, 18966 kPa	19.2158 kg/m3 and 19.2164 kg/m3 and 19.2154 kg/m3
450 K, 24940 kPa	24.8633 kg/m3 and 24.8624 kg/m3
450 K, 24941 kPa	24.8636 kg/m3
450 K, 24943 kPa	24.8658 kg/m3
450 K, 31394 kPa	30.7672 kg/m3
450 K, 31395 kPa	30.7683 kg/m3
450 K, 31396 kPa	30.7693 kg/m3
450 K, 31398 kPa	30.7705 kg/m3
450 K, 37608 kPa	36.2728 kg/m3
450 K, 37610 kPa	36.274 kg/m3
450 K, 37611 kPa	36.2757 kg/m3
450 K, 37613 kPa	36.2772 kg/m3
475 K, 4812.4 kPa	4.813 kg/m3 and 4.8133 kg/m3 and 4.8131 kg/m3
475 K, 7937.7 kPa	7.8707 kg/m3
475 K, 7937.9 kPa	7.871 kg/m3
475 K, 7938 kPa	7.8709 kg/m3
475 K, 11474 kPa	11.2698 kg/m3 and 11.2694 kg/m3
475 K, 11475 kPa	11.2697 kg/m3 and 11.2696 kg/m3
475 K, 15102 kPa	14.6905 kg/m3 and 14.6903 kg/m3 and 14.69 kg/m3
475 K, 15103 kPa	14.6908 kg/m3
475 K, 18995 kPa	18.29 kg/m3 and 18.2901 kg/m3 and 18.2895 kg/m3
475 K, 18996 kPa	18.2908 kg/m3
475 K, 25698 kPa	24.3237 kg/m3 and 24.3233 kg/m3
475 K, 25699 kPa	24.3246 kg/m3
475 K, 31116 kPa	29.0563 kg/m3
475 K, 31118 kPa	29.0576 kg/m3
475 K, 31119 kPa	29.0583 kg/m3
475 K, 31122 kPa	29.0604 kg/m3
475 K, 37990 kPa	34.8852 kg/m3
475 K, 37992 kPa	34.8873 kg/m3
475 K, 37994 kPa	34.8888 kg/m3
475 K, 37996 kPa	34.891 kg/m3
499.99 K, 37868 kPa	33.2206 kg/m3
500 K, 4928 kPa	4.6849 kg/m3 and 4.6846 kg/m3 and 4.685 kg/m3
500 K, 7887.1 kPa	7.4404 kg/m3 and 7.4403 kg/m3
500 K, 7887.3 kPa	7.4406 kg/m3
500 K, 11580 kPa	10.8213 kg/m3 and 10.8221 kg/m3 and 10.8212 kg/m3
500 K, 11581 kPa	10.8215 kg/m3
500 K, 15421 kPa	14.2721 kg/m3 and 14.2719 kg/m3
500 K, 15422 kPa	14.2732 kg/m3 and 14.2727 kg/m3
500 K, 19581 kPa	17.9371 kg/m3 and 17.9369 kg/m3
500 K, 19583 kPa	17.9388 kg/m3
500 K, 25162 kPa	22.7413 kg/m3
500 K, 25163 kPa	22.7419 kg/m3
500 K, 25166 kPa	22.7445 kg/m3
500 K, 30651 kPa	27.3437 kg/m3
500 K, 30652 kPa	27.3446 kg/m3
500 K, 30653 kPa	27.3454 kg/m3
500 K, 30654 kPa	27.3459 kg/m3
500 K, 37864 kPa	33.2185 kg/m3
500 K, 37865 kPa	33.2203 kg/m3
500 K, 37870 kPa	33.2239 kg/m3
